From BindingDB's records for doi:10.1016/j.bmcl.2009.09.123 (Genomics Institute of The Novartis Research Foundation, 2009)

Tests used:
[1] = Inhibition of Tel-fused LCK expressed in mouse BAF3 cells
[2] = Inhibition of Tel-fused KDR expressed in mouse BAF3 cells
[3] = Inhibition of Tel-fused LYN expressed in mouse BAF3 cells
[4] = Inhibition of Tel-fused SRC expressed in mouse BAF3 cells

IC50 [1] [µM] | IC50 [2] [µM] | IC50 [3] [µM] | IC50 [4] [µM] | SMILES
0.083 | 1.02 | 1.08 | 7.17 | Cc1cccc(NC(=O)c2ccc(C)c(Nc3nc4ccccc4n3-c3cc(N)ncn3)c2)c1 [3-(1-(6-aminopyrimidin-4-yl)-1H-benzo[d]imidazol-2-ylamino)-4-methyl-N-m-tolylbenzamide]
2.28 | 8.82 | 5.51 | 6.17 | Cc1ccc(C(=O)Nc2ccccc2)cc1Nc1nc2ccccc2n1-c1cc(N)ncn1 [3-(1-(6-aminopyrimidin-4-yl)-1H-benzo[d]imidazol-2-ylamino)-4-methyl-N-phenylbenzamide]
0.047 | 0.092 | 0.1 | > 10 | Cc1ccc(C(=O)Nc2cccc(OC(F)F)c2)cc1Nc1nc2ccccc2n1-c1cc(N)ncn1 [3-(1-(6-aminopyrimidin-4-yl)-1H-benzo[d]imidazol-2-ylamino)-N-(3-(difluoromethoxy)phenyl)-4-methylbenzamide]
0.052 | 0.464 | 0.272 | 5.38 | Cc1ccc(C(=O)Nc2cccc(Br)c2)cc1Nc1nc2ccccc2n1-c1cc(N)ncn1 [3-(1-(6-aminopyrimidin-4-yl)-1H-benzo[d]imidazol-2-ylamino)-N-(3-bromophenyl)-4-methylbenzamide]
> 10 | > 10 | > 10 | > 10 | Cc1ccc(C(=O)Nc2cccc(C(N)=O)c2)cc1Nc1nc2ccccc2n1-c1cc(N)ncn1 [3-(1-(6-aminopyrimidin-4-yl)-1H-benzo[d]imidazol-2-ylamino)-N-(3-carbamoylphenyl)-4-methylbenzamide]
0.076 | 0.26 | > 10 | > 10 | Cc1ccc(C(=O)Nc2cccc(Cl)c2)cc1Nc1nc2ccccc2n1-c1cc(N)ncn1 [3-(1-(6-aminopyrimidin-4-yl)-1H-benzo[d]imidazol-2-ylamino)-N-(3-chlorophenyl)-4-methylbenzamide]
0.157 | 0.516 | 0.437 | 4.39 | COc1cccc(NC(=O)c2ccc(C)c(Nc3nc4ccccc4n3-c3cc(N)ncn3)c2)c1 [3-(1-(6-aminopyrimidin-4-yl)-1H-benzo[d]imidazol-2-ylamino)-N-(3-methoxyphenyl)-4-methylbenzamide]
0.016 | 0.052 | 0.016 | 0.202 | Cc1ccc(C(=O)Nc2cccc(C(C)(C)C)c2)cc1Nc1nc2ccccc2n1-c1cc(N)ncn1 [3-(1-(6-aminopyrimidin-4-yl)-1H-benzo[d]imidazol-2-ylamino)-N-(3-tert-butylphenyl)-4-methylbenzamide]
0.02 | 0.133 | 0.043 | 0.117 | Cc1ccc(C(=O)Nc2cccc(C(F)(F)F)c2)cc1Nc1nc2ccccc2n1-c1ncnc(NCCCN2CCN(C)CC2)n1 [4-methyl-3-(1-(4-(3-(4-methylpiperazin-1-yl)propylamino)-1,3,5-triazin-2-yl)-1H-benzo[d]imidazol-2-ylamino)-N-(3-(trifluoromethyl)phenyl)benzamide]
 | 0.296 | 0.126 | 0.606 | COCCNc1cc(-n2c(Nc3cc(NC(=O)c4cccc(C(F)(F)F)c4)ccc3C)nc3ccccc32)ncn1 [N-(3-(1-(6-(2-methoxyethylamino)pyrimidin-4-yl)-1H-benzo[d]imidazol-2-ylamino)-4-methylphenyl)-3-(trifluoromethyl)benzamide]
0.041 | 0.885 | 0.217 |  | CCN(CC)CCCCNc1cc(-n2c(Nc3cc(NC(=O)c4cccc(C(F)(F)F)c4)ccc3C)nc3ccccc32)ncn1 [N-(3-(1-(6-(4-(diethylamino)butylamino)pyrimidin-4-yl)-1H-benzo[d]imidazol-2-ylamino)-4-methylphenyl)-3-(trifluoromethyl)benzamide]
0.084 | 0.576 |  | 0.65 | Cc1ccc(NC(=O)c2cccc(Cl)c2)cc1Nc1nc2ccccc2n1-c1cc(N)ncn1 [N-(3-(1-(6-aminopyrimidin-4-yl)-1H-benzo[d]imidazol-2-ylamino)-4-methylphenyl)-3-chlorobenzamide]
0.89 |  | 0.595 | > 10 | Cc1ccc(NC(=O)c2ccncc2Cl)cc1Nc1nc2ccccc2n1-c1cc(N)ncn1 [N-(3-(1-(6-aminopyrimidin-4-yl)-1H-benzo[d]imidazol-2-ylamino)-4-methylphenyl)-3-chloroisonicotinamide]
 |  |  | 0.056 | Cc1ccc(NC(=O)c2ccncc2C(C)(C)C)cc1Nc1nc2ccccc2n1-c1cc(N)ncn1 [N-(3-(1-(6-aminopyrimidin-4-yl)-1H-benzo[d]imidazol-2-ylamino)-4-methylphenyl)-3-tert-butylisonicotinamide]
2.7 | 9.07 | 3.3 |  | Cc1ccc(NC(=O)c2cccc(C(F)(F)F)c2)cc1Nc1nc2ccccc2n1-c1cc(Cl)ncn1 [N-(3-(1-(6-chloropyrimidin-4-yl)-1H-benzo[d]imidazol-2-ylamino)-4-methylphenyl)-3-(trifluoromethyl)benzamide]
0.238 | 0.941 |  | 0.903 | Cc1ccc(NC(=O)c2cccc(C(F)(F)F)c2)cc1Nc1nc2ccccc2n1-c1cc(NCCC2CCCN2)ncn1 (stereo unspecified) [N-(4-methyl-3-(1-(6-(2-(pyrrolidin-2-yl)ethylamino)pyrimidin-4-yl)-1H-benzo[d]imidazol-2-ylamino)phenyl)-3-(trifluoromethyl)benzamide]

Continued, molecule first:

SMILES | IC50 [1] [µM] | IC50 [2] [µM] | IC50 [3] [µM] | IC50 [4] [µM]
Cc1ccc(C(=O)Nc2cccc(C(F)(F)F)c2)cc1Nc1nc2ccccc2n1-c1cc(NCCC#N)ncn1 [3-(1-(6-(2-cyanoethylamino)pyrimidin-4-yl)-1H-benzo[d]imidazol-2-ylamino)-4-methyl-N-(3-(trifluoromethyl)phenyl)benzamide] | 0.275 | 0.245 | 0.468 | 1.22
CCN(CC)CCCCNc1cc(-n2c(Nc3cc(C(=O)Nc4cccc(C(F)(F)F)c4)ccc3C)nc3ccccc32)ncn1 [3-(1-(6-(4-(diethylamino)butylamino)pyrimidin-4-yl)-1H-benzo[d]imidazol-2-ylamino)-4-methyl-N-(3-(trifluoromethyl)phenyl)benzamide] | 0.052 | 0.243 | 0.14 | 
CCN(CC)CCCCNc1cc(-n2c(Nc3cc(C(=O)Nc4cccc(C)c4)ccc3C)nc3ccccc32)ncn1 [3-(1-(6-(4-(diethylamino)butylamino)pyrimidin-4-yl)-1H-benzo[d]imidazol-2-ylamino)-4-methyl-N-m-tolylbenzamide] | 0.406 | 1.36 | 1.31 | 1.06
Cc1ccc(C(=O)Nc2cccc(C(F)(F)F)c2)cc1Nc1nc2ccccc2n1-c1cc(NCCCCN(C)C)ncn1 [3-(1-(6-(4-(dimethylamino)butylamino)pyrimidin-4-yl)-1H-benzo[d]imidazol-2-ylamino)-4-methyl-N-(3-(trifluoromethyl)phenyl)benzamide] | 0.038 | 0.249 | 0.134 | 0.556
Cc1cccc(NC(=O)c2ccc(C)c(Nc3nc4ccccc4n3-c3cc(NCCCCN(C)C)ncn3)c2)c1 [3-(1-(6-(4-(dimethylamino)butylamino)pyrimidin-4-yl)-1H-benzo[d]imidazol-2-ylamino)-4-methyl-N-m-tolylbenzamide] | 0.531 | 1.5 | 1.38 | 1.27
Cc1ccc(C(=O)Nc2cccc(C(F)(F)F)c2)cc1Nc1nc2ccccc2n1-c1ncnc(N)c1C [3-(1-(6-amino-5-methylpyrimidin-4-yl)-1H-benzo[d]imidazol-2-ylamino)-4-methyl-N-(3-(trifluoromethyl)phenyl)benzamide] | 4.46 | 8.18 | 8.01 | > 10
Cc1cc(NC(=O)c2ccc(C)c(Nc3nc4ccccc4n3-c3cc(N)ncn3)c2)ccn1 [3-(1-(6-aminopyrimidin-4-yl)-1H-benzo[d]imidazol-2-ylamino)-4-methyl-N-(2-methylpyridin-4-yl)benzamide] | 0.702 | 0.135 | > 10 | > 10
Cc1cn(-c2cc(NC(=O)c3ccc(C)c(Nc4nc5ccccc5n4-c4cc(N)ncn4)c3)cc(C(F)(F)F)c2)cn1 [3-(1-(6-aminopyrimidin-4-yl)-1H-benzo[d]imidazol-2-ylamino)-4-methyl-N-(3-(4-methyl-1H-imidazol-1-yl)-5-(trifluoromethyl)phenyl)benzamide] | 0.014 | 0.02 | 0.028 | 0.107
Cc1ccc(C(=O)Nc2cccc(C(F)(F)F)c2)cc1Nc1nc2ccccc2n1-c1cc(N)ncn1 [3-(1-(6-aminopyrimidin-4-yl)-1H-benzo[d]imidazol-2-ylamino)-4-methyl-N-(3-(trifluoromethyl)phenyl)benzamide] | 0.02 | 0.055 | 0.015 | > 10
Cc1ccc(C(=O)Nc2cccc(C(C)C)c2)cc1Nc1nc2ccccc2n1-c1cc(N)ncn1 [3-(1-(6-aminopyrimidin-4-yl)-1H-benzo[d]imidazol-2-ylamino)-N-(3-isopropylphenyl)-4-methylbenzamide] | 0.007 | 0.017 | 0.015 | 0.021
Cc1ccc(C(=O)Nc2cccc3cnccc23)cc1Nc1nc2ccccc2n1-c1cc(N)ncn1 [3-(1-(6-aminopyrimidin-4-yl)-1H-benzo[d]imidazol-2-ylamino)-N-(isoquinolin-5-yl)-4-methylbenzamide] | 3.24 | 10.6 | 7.84 | 7.61
Cc1ccc(NC(=O)c2cc(C(C)(C)C)nn2C)cc1Nc1nc2ccccc2n1-c1cc(N)ncn1 [N-(3-(1-(6-aminopyrimidin-4-yl)-1H-benzo[d]imidazol-2-ylamino)-4-methylphenyl)-3-tert-butyl-1-methyl-1H-pyrazole-5-carboxamide] | 0.224 | 0.451 |  | 0.959
